Values joined by “and” are separate entries in the source; they are usually repeats but may differ in a detail not shown here. Equal entries are not always repeated. Toxic doses and inconclusive results are not listed. How the source made its calls: active means survival T/C of 150% or more; inactive means T/C below 125% in these data.
Test system: P388 leukemia ip, CD2F1 mice, survival T/C
Assay: NCI In Vivo Anticancer Drug Screen. Data for tumor model P388 Leukemia (intraperitoneal) in CD2F1 (CDF1) mice
Settings: endpoint: median survival time, higher = longer survival
Summary of the method: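 Mice carrying the transplanted tumor received test compound or vehicle. Survival was recorded in each group, and the value is the treated-group measurement divided by that of the vehicle-treated control group.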

[1] = dose: 50.0 mg/kg/injection, schedule: Q01DX005 (ip), vehicle: Klucel (hydroxypropylcellulose) (HPC)
[2] = dose: 100.0 mg/kg/injection, schedule: Q01DX005 (ip), vehicle: Klucel (hydroxypropylcellulose) (HPC)
[3] = dose: 200.0 mg/kg/injection, schedule: Q01DX005 (ip), vehicle: Klucel (hydroxypropylcellulose) (HPC)
[4] = dose: 50.0 mg/kg/injection, schedule: Q01DX009 (ip), vehicle: Klucel (hydroxypropylcellulose) (HPC)
[5] = dose: 100.0 mg/kg/injection, schedule: Q01DX009 (ip), vehicle: Klucel (hydroxypropylcellulose) (HPC)
[6] = dose: 200.0 mg/kg/injection, schedule: Q01DX009 (ip), vehicle: Klucel (hydroxypropylcellulose) (HPC)
[7] = dose: 50.0 mg/kg/injection, schedule: Q01DX005 (ip), vehicle: saline with Tween-80
[8] = dose: 100.0 mg/kg/injection, schedule: Q01DX005 (ip), vehicle: saline with Tween-80
[9] = dose: 100.0 mg/kg/injection, schedule: Q04DX003 (ip), vehicle: saline with Tween-80
[10] = dose: 200.0 mg/kg/injection, schedule: Q04DX003 (ip), vehicle: saline with Tween-80

Measured: T/C

CCN(CC)CCCC(C)NC(C)CCCN(CC)CC (configuration not stated)
inactive: dose: 3.13 mg/kg/injection, schedule: Q01DX009 (ip), vehicle: water 112 % of control | dose: 6.25 mg/kg/injection, schedule: Q01DX009 (ip), vehicle: water 112 % of control | dose: 12.5 mg/kg/injection, schedule: Q01DX009 (ip), vehicle: water 99 % of control | dose: 25.0 mg/kg/injection, schedule: Q01DX009 (ip), vehicle: water 108 % of control | dose: 50.0 mg/kg/injection, schedule: Q01DX009 (ip), vehicle: water 104 % of control

O=C(NN(Cn1c(=S)sc2ccccc21)Cn1c(=S)sc2ccccc21)c1ccccc1O
inactive: [1] 89 % of control | [2] 91 % of control | [3] 98 % of control

CC1CCC(OC(=O)N(CCCl)N=O)CC1 (configuration not stated)
inactive: dose: 3.12 mg/kg/injection, schedule: Q01DX001 (ip), vehicle: saline with Tween-80 100 % of control | dose: 6.25 mg/kg/injection, schedule: Q01DX001 (ip), vehicle: saline with Tween-80 108 % of control | dose: 12.5 mg/kg/injection, schedule: Q01DX001 (ip), vehicle: saline with Tween-80 111 % of control | dose: 25.0 mg/kg/injection, schedule: Q01DX001 (ip), vehicle: saline with Tween-80 118 % of control | dose: 50.0 mg/kg/injection, schedule: Q01DX001 (ip), vehicle: saline with Tween-80 105 % of control | dose: 100.0 mg/kg/injection, schedule: Q01DX001 (ip), vehicle: saline with Tween-80 114 % of control and 86 % of control | dose: 150.0 mg/kg/injection, schedule: Q01DX001 (ip), vehicle: saline with Tween-80 100 % of control

O=C(CNN1C(=O)CSC1=Nc1cccc2ccccc12)c1cccc2c1Nc1ccccc1S2
inactive: [4] 102 % of control | [5] 102 % of control | [6] 98 % of control

O=C(O)/C=C\C(=O)O
inactive: dose: 1.5 mg/kg/injection, schedule: Q01DX009 (ip), vehicle: saline with Tween-80 95 % of control | dose: 3.0 mg/kg/injection, schedule: Q01DX009 (ip), vehicle: saline with Tween-80 100 % of control | dose: 6.0 mg/kg/injection, schedule: Q01DX009 (ip), vehicle: saline with Tween-80 109 % of control | dose: 25.0 mg/kg/injection, schedule: Q01DX009 (ip), vehicle: saline 95 % of control | dose: 50.0 mg/kg/injection, schedule: Q01DX009 (ip), vehicle: saline 104 % of control | dose: 100.0 mg/kg/injection, schedule: Q01DX009 (ip), vehicle: saline 95 % of control

CN1C(=S)NC2C(O)C(O)C(CO)OC21 (configuration not stated)
inactive: [7] 97 % of control | [8] 99 % of control | dose: 200.0 mg/kg/injection, schedule: Q01DX005 (ip), vehicle: saline with Tween-80 99 % of control

O=P(c1ccccc1)(c1ccccc1)c1ccccc1.O=P(c1ccccc1)(c1ccccc1)c1ccccc1.O=P(c1ccccc1)(c1ccccc1)c1ccccc1.O=P(c1ccccc1)(c1ccccc1)c1ccccc1.[Fe+3].[O-][Cl+3]([O-])([O-])O
inactive: [9] 97 % of control | [10] 93 % of control

CN(C)C=Nc1cccnc1[N+](=O)[O-]
inactive: [4] 108 % of control | [5] 99 % of control | [6] 108 % of control

c1ccc(C2(c3ccccc3)CN3CCSC3=N2)cc1
inactive: dose: 12.5 mg/kg/injection, schedule: Q04DX003 (ip), vehicle: saline with Tween-80 104 % of control | dose: 25.0 mg/kg/injection, schedule: Q04DX003 (ip), vehicle: saline with Tween-80 103 % of control | dose: 50.0 mg/kg/injection, schedule: Q04DX003 (ip), vehicle: saline with Tween-80 99 % of control | [9] 108 % of control | [10] 103 % of control

Cc1[nH]c(=O)[nH]c(=O)c1/C=C/C(=O)NC(CO)CS(=O)C(C)C (configuration not stated)
inactive: dose: 0.07 mg/kg/injection, schedule: Q01DX009 (ip), vehicle: water 103 % of control | dose: 0.15 mg/kg/injection, schedule: Q01DX009 (ip), vehicle: water 100 % of control | dose: 0.3 mg/kg/injection, schedule: Q01DX009 (ip), vehicle: water 103 % of control | dose: 0.6 mg/kg/injection, schedule: Q01DX009 (ip), vehicle: water 103 % of control | dose: 2.0 mg/kg/injection, schedule: Q01DX009 (ip), vehicle: water 121 % of control | dose: 4.0 mg/kg/injection, schedule: Q01DX009 (ip), vehicle: water 118 % of control | dose: 8.0 mg/kg/injection, schedule: Q01DX009 (ip), vehicle: water 118 % of control | dose: 32.0 mg/kg/injection, schedule: Q01DX009 (ip), vehicle: water 100 % of control and 124 % of control | dose: 64.0 mg/kg/injection, schedule: Q01DX009 (ip), vehicle: water 93 % of control | dose: 128.0 mg/kg/injection, schedule: Q01DX009 (ip), vehicle: water 98 % of control | dose: 200.0 mg/kg/injection, schedule: Q01DX009 (ip), vehicle: water 108 % of control | dose: 256.0 mg/kg/injection, schedule: Q01DX009 (ip), vehicle: water 96 % of control | dose: 300.0 mg/kg/injection, schedule: Q01DX009 (ip), vehicle: water 110 % of control | dose: 400.0 mg/kg/injection, schedule: Q01DX009 (ip), vehicle: water 113 % of control

Cc1nc2ccccc2c(=O)n1/N=C1/C(=O)Nc2ccccc21
inactive: dose: 25.0 mg/kg/injection, schedule: Q01DX005 (ip), vehicle: Klucel (hydroxypropylcellulose) (HPC) 90 % of control | [1] 90 % of control | [2] 88 % of control | [3] 103 % of control

CCOC(=O)c1c[nH]c2c(Cl)c(Cl)ccc2c1=O
inactive: [4] 102 % of control | [5] 95 % of control

C=C(C)C(=O)OC1CCC2Cc3occ(C)c3C(OC(=O)C=C(C)C)C2(C)C1C (configuration not stated)
inactive: dose: 10.0 mg/kg/injection, schedule: Q01DX009 (ip), vehicle: saline with Tween-80 103 % of control | dose: 20.0 mg/kg/injection, schedule: Q01DX009 (ip), vehicle: saline with Tween-80 101 % of control | dose: 40.0 mg/kg/injection, schedule: Q01DX009 (ip), vehicle: saline with Tween-80 100 % of control | dose: 80.0 mg/kg/injection, schedule: Q01DX009 (ip), vehicle: saline with Tween-80 98 % of control

Cc1ncc([N+](=O)[O-])n1CCSC(N)=O
inactive: dose: 50.0 mg/kg/injection, schedule: Q04DX003 (ip), vehicle: saline 102 % of control and 105 % of control | dose: 100.0 mg/kg/injection, schedule: Q04DX003 (ip), vehicle: saline 102 % of control and 114 % of control | dose: 200.0 mg/kg/injection, schedule: Q04DX003 (ip), vehicle: saline 100 % of control and 114 % of control | dose: 400.0 mg/kg/injection, schedule: Q04DX003 (ip), vehicle: saline 100 % of control and 120 % of control

CC(=O)C(C(=O)Nc1cccc2ccccc12)C(C)=NCC(C)N=C(C)C(C(C)=O)C(=O)Nc1cccc2ccccc12.[Cu] (configuration not stated)
inactive: dose: 12.5 mg/kg/injection, schedule: Q01DX005 (ip), vehicle: saline + Tween-80 + alcohol 110 % of control | dose: 25.0 mg/kg/injection, schedule: Q01DX005 (ip), vehicle: saline + Tween-80 + alcohol 96 % of control | dose: 50.0 mg/kg/injection, schedule: Q01DX005 (ip), vehicle: saline + Tween-80 + alcohol 105 % of control

O=S(=O)(OCCCl)c1c(Cl)c(Cl)c(Cl)c(Cl)c1Cl
inactive: dose: 12.5 mg/kg/injection, schedule: Q01DX005 (ip), vehicle: saline with Tween-80 95 % of control | dose: 25.0 mg/kg/injection, schedule: Q01DX005 (ip), vehicle: saline with Tween-80 92 % of control | [7] 92 % of control and 93 % of control | [8] 96 % of control
